Source: US20040110676A1, “Methods for modulating cell survival” (priority 2000, published 2004)

How the values were obtained:
AKT = AKT (Homo sapiens, UniProt P31749); experiment: In vitro kinase reaction, phosphorylation of htt by AKT (autoradiography); format: biochemical; settings: S421A-mutant N-terminal one-third of htt as substrate, compared with wild-type, purified recombinant active AKT
Excerpt: Serine 421 of huntingtin can be phosphorylated by purified recombinant active AKT in vitro (FIG. 18). Immunoprecipitated recombinant protein containing the N-terminal one-third of htt was used as a substrate for AKT. Phosphorylation was detected by autoradiography since radiolabelled ATP was a component of the in vitro kinase reaction. When serine 421 was mutated to alanine (S421A), a non-phosphorylatable amino acid, 64% of the phosphorylation signal on huntingtin was ablated. […] Other sites for AKT phosphorylation are threonines 1024 and 2068.

HBL-100 cells = experiment: Anoikis assay on poly-HEMA coated plates, annexin-V-FITC/PI; format: cell-based, human
Excerpt: The human breast cell line HBL-100, transformed by the SV40 virus large T antigen with epithelial like morphology, was used to investigate the importance of the huntingtin serine residue at position 421 with respect to phosphorylation towards anoikis resistant, anchorage independent cell growth. HBL-100 cells were transfected with a 3949-15wt huntingtin vector construct, or a similar vector in which the normal serine at position 421 was mutated to an alanine residue. This mutation prevents phosphorylation from occurring at that site, which is presumed to be mediated by the kinase AKT/PKB. Cells were cultured in DMEM with 5% serum for 24 hours either on untreated tissue culture plastic or on poly-HEMA-coated plastic plates. Cells were harvested, counted and viability was assessed via annexin-V-FITC and propidium iodide (PI) staining.
HBL-100 cells were transiently transfected with a FLAG-tagged 3949-15wt htt, or a FLAG-tagged (S-A) unphosphorylatable mutant htt. Wild-type cells were also treated with LY294002, a specific PI-3 kinase inhibitor, at a concentration of 10 μM, to determine whether inhibition of kinase function could abrogate the induction of anoikis. Western blot analysis confirming the expression of both full length and 3949 huntingtin in the FLAG-tagged constructs (FIG. 26B). The presence of endogenous huntingtin in the parental cells is also shown. […]

spermatogenic cells = experiment: Testicular histology, ultrastructure and TUNEL labeling; format: in vivo; settings: endogenous htt expression increased to 100% of normal levels
Protocol: Testes were removed from anesthetized animals and immediately placed in fixative (1.5% paraformaldehyde, 1.5% glutaraldehyde, 0.1 M Na cacodylate, pH 7.3). The capsules were nicked with a scalpel and then the organs left to fix for approximately 1 hour. The testes were cut into small pieces and fixed for an additional hour. The pieces were washed with buffer, post-fixed in buffered 1% OSO4 on ice for 1 hour, washed with dH2O, and stained en bloc in 1% aqueous uranyl acetate. The samples were washed with dH2O, dehydrated through a graded concentration series of ethyl alcohols, and then embedded in JEMBED™812 (J. B. EM Services Inc., Point-Claire, Quebec).
For histological analysis, thick sections (1 μm) were stained with toluidine blue and evaluated on a Zeiss Axiophot microscope. For ultrastructural analysis, thin sections were cut on an ultramicrotome, stained with lead citrate and uranyl acetate, and then viewed and photographed on a Philips 300 electron microscope operated at 60 kV.
TUNEL™ labeling (Boehringer Mannheim) was performed using standard techniques on frozen sections of testes that were lightly immersion fixed in 3% paraformaldehyde. […]
The cellular effect of the htt expression was determined by analyzing the testicular morphology of YAC rescued htt knockout mice. […]
TUNEL™ staining was used to quantitate apoptosis in the YAC rescued transgenic mice. […]

[1] = system: truncated mutant htt with 128 CAG repeats in HEK 293T cells; experiment: Mutant htt aggregate formation, immunofluorescence; format: cell-based, human; settings: vs LacZ control
Protocol: The C-terminus of htt was co-transfected with mutant htt and aggregate formation was induced with tamoxifen or HIP-1 expression as described herein. HEK 293T cells were transfected with truncated mutant htt with 128 CAG repeats and processed for immunofluorescence by growing cells on glass coverslips and transfecting at 30% confluency using a standard calcium phosphate protocol. At 48 hours post-transfection, the cells were treated with 35 μM tamoxifen (Sigma) for 1 hour to induce aggregate formation, then processed for immunofluorescence. The cells were fixed in 4% paraformaldehyde/PBS, permeabilised in 0.5% Triton X-100/PBS for 5 min, then incubated with anti-htt antibody MAB2166 (Chemicon) (1:2500 dilution) diluted in 0.4% BSA/PBS. Secondary antibodies conjugated to FITC (Jackson Laboratories) were used at 1:600-1:800 dilutions, and DAPI (4′,6′-diamindino-2-phenylindole, Sigma) was used as a nuclear counter-stain. Appropriate control experiments were performed to determine the specificity of the antibodies, including secondary antibody only and mock transfected cells. The cells were viewed with a Zeiss (Axioscope) microscope, digitally captured with a CCD camera (Princeton Instrument Inc.) and the images were colourised and overlapped using the Eclipse (Empix Imaging Inc.) software program. […]

NT2 cells [2] = experiment: HIP-1-induced cell death, morphology scoring; format: cell-based, human; settings: NT2 cells co-transfected with HIP-1, vs control protein PK, p<0.01
Protocol: HIP-1-induced toxicity was used to assess whether the C-terminus of htt confers protection against a toxic protein-mediated cell death, in addition to its effect on tamoxifen-induced death. NT2 cells were co-transfected with mutant HIP-1 and the C-terminus, or HIP-1 and the control pyruvate kinase cDNA, using lipofectamine (GibcoBRL). Cell death was measured by morphological changes using co-transfection of a plasmid containing the LacZ gene, as described herein. […] Thus, the protective activity of htt C-terminus may have a functional role in HIP-1-mediated cell death in vivo.

HEK 293T cells = experiment: MTT (WST-1) cell viability assay, tamoxifen-induced cell death; format: cell-based, human; settings: transfected HEK 293T cells, tamoxifen 4 hours, compared with LacZ control
Protocol: The survival effect of htt was measured in vitro using the MTT assay, in which a reduction in mitochondrial viability is indicative of cell death. Human embryonic kidney (HEK) 293T cells were seeded at a density of 5×10^4 cells into 96-well plates and transfected with 0.1 μg htt or LacZ DNA using a standard calcium phosphate protocol (Hackam et al. (1998) J Cell Biol. 141: 1097-105). Transfected cells in 96-well plates were treated at 48 hours post-transfection with a various concentrations of tamoxifen, a cell permeable compound that leads to caspase activation and cell death, for 4 hours. Cell viability was measured, […], by incubating the cells for 2 hours in a 1:10 dilution of WST-1 reagent (Boehringer Mannheim) and release of formazan from mitochondria was quantified by the MTT assay at 450 nm using an ELISA plate reader (Dynatech Laboratories). Mock transfected, vector only and LacZ transfected cells served as controls for transfection-related toxicity. Statistical analyses of the cell death data were performed using one-way ANOVA and Newman-Keuls post-comparison tests.

NT2 cells [3] = experiment: Mutant htt (HD138)-induced cell death, apoptotic morphology scoring; format: cell-based, human; settings: NT2 cells co-transfected with HD138, tamoxifen stimulus, vs pyruvate kinase control, p=0.002
Protocol: Mutant htt protein (HD138) was co-transfected with control protein, pyruvate kinase (PK), or with htt C-terminus (C-ter) into NT2 cells (a human neuronal precursor cell line) at 40% density using lipofectamine (GibcoBRL), and cell death in response to tamoxifen stimulus was measured. Cell death was quantified in NT2 cells by co-transfection of the expression constructs with a plasmid containing the LacZ gene at a 4:1 ratio, and the cells were stained for β-galactosidase activity at 24 hours post-transfection using standard procedures. The survival effect of the htt protein was assessed by incubating transfected cells with the pro-apoptotic drug tamoxifen for 4 hrs at various concentrations. An apoptotic morphology was scored as blue-staining cells that were rounded up, blebbed and condensed, which were clearly distinguished from viable cells that were flat and had neurite-like extensions. The cell death data was analyzed for statistical significance using one-way ANOVA and Newman-Keuls post-comparison tests.

[4] = system: recombinant N-terminal one-third of htt with serine 421 mutated to alanine (S421A)
recombinant N-terminal one-third of htt with serine 421 mutated to alanine (S421A), sequence (chain, as listed by the source S421A): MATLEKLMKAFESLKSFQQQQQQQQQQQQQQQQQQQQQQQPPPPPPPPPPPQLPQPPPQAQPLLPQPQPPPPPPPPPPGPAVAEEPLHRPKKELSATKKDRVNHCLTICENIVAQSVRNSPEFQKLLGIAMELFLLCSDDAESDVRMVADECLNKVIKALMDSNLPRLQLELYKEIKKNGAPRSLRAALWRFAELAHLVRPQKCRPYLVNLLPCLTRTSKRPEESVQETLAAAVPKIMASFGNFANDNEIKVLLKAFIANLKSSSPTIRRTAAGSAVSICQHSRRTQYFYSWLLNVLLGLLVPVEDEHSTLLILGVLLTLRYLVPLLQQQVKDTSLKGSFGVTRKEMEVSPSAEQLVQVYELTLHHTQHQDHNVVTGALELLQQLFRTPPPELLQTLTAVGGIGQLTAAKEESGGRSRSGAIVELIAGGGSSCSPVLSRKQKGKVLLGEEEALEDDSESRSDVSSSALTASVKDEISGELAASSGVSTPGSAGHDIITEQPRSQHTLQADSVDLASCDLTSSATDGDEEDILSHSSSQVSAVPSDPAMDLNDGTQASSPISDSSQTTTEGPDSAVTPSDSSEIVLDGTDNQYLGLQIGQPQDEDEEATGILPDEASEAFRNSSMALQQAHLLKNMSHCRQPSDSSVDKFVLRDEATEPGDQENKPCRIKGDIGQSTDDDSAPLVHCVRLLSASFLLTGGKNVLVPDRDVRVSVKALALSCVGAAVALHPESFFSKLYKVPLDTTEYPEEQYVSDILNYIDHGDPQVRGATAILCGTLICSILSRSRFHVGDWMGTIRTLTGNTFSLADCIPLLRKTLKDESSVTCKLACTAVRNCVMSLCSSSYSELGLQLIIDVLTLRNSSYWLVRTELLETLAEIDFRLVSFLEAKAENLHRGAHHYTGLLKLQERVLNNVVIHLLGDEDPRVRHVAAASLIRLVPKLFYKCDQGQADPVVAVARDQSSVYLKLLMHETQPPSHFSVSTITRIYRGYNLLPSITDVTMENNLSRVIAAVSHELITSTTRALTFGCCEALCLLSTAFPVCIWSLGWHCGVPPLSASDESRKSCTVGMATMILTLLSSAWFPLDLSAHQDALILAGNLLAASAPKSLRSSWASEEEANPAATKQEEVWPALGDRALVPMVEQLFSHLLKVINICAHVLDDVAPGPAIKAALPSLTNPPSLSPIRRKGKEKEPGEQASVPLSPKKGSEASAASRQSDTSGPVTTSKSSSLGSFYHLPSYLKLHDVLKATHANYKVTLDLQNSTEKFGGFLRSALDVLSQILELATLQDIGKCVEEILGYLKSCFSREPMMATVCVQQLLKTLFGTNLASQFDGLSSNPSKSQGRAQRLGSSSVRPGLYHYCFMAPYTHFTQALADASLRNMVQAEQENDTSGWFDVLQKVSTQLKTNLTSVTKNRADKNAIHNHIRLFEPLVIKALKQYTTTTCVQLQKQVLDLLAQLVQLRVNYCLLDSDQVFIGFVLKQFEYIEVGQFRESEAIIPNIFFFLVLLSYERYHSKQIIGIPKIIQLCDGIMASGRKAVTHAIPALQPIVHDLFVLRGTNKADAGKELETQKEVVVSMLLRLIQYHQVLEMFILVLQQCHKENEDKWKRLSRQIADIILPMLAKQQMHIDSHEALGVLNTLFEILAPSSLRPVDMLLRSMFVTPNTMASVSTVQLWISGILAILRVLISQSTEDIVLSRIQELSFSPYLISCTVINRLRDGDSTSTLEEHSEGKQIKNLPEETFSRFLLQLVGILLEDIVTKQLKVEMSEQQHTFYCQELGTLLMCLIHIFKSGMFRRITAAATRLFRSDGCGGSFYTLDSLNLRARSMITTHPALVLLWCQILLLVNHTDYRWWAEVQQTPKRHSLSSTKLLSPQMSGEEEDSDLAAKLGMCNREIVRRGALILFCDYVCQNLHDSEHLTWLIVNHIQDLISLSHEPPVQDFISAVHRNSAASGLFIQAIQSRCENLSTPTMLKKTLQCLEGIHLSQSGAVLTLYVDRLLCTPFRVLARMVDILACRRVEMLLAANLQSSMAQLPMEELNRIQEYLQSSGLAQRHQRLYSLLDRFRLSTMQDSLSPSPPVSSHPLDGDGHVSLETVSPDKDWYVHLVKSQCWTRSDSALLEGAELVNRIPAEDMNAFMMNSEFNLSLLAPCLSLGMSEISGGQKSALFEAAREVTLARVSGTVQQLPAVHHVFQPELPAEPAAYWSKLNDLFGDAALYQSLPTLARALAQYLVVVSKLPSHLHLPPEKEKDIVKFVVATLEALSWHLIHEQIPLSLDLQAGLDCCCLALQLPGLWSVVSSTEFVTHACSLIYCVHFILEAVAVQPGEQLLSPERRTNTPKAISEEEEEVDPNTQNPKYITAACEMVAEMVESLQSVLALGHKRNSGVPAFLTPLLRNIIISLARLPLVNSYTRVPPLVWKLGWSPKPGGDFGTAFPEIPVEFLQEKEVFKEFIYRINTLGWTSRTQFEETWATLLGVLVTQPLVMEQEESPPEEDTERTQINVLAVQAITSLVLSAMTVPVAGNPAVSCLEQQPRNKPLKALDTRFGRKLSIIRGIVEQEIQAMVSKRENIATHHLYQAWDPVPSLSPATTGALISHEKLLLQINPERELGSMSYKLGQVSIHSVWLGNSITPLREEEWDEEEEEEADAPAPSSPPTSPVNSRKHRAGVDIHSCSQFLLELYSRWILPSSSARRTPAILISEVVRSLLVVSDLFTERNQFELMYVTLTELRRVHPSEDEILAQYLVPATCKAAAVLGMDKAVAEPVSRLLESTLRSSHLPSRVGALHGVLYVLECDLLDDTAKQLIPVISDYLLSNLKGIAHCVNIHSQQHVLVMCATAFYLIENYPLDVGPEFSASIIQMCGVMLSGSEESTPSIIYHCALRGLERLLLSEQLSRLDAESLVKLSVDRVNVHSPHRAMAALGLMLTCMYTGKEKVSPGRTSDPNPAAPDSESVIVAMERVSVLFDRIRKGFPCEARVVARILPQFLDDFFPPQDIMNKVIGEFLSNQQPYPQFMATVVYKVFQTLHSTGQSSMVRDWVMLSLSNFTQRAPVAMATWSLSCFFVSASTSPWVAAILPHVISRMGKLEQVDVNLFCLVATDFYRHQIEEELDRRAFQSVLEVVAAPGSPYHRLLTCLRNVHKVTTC

[5] = system: immunoprecipitated recombinant protein containing the N-terminal one-third of htt
immunoprecipitated recombinant protein containing the N-terminal one-third of htt, sequence (chain, as listed by the source): as the sequence (chain, as listed by the source S421A) above, with A421S counted along it

AKT, sequence (P31749 whole entry): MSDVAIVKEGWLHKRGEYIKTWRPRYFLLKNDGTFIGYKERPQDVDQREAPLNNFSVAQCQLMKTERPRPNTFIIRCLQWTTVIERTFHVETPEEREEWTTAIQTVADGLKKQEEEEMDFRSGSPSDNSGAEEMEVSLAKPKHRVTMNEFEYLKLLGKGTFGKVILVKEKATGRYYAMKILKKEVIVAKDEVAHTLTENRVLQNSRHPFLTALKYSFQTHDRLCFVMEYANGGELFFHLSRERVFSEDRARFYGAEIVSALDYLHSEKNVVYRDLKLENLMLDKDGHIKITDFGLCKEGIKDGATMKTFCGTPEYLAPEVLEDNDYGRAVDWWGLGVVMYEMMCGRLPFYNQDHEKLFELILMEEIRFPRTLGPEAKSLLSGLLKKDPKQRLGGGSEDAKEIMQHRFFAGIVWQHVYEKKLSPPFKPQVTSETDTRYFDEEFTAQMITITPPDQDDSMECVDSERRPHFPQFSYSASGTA

Substance: S421A: htt with serine 421 replaced by alanine, unphosphorylatable
- phosphorylation signal on huntingtin ablated (AKT): 64%
- anoikis resistant growth in detached state (kinase inhibition study) (HBL-100 cells; HBL-100 cells transiently transfected with FLAG-tagged constructs, LY294002 10 μM): grew poorly in a detached state
- anoikis resistance, growth attached or detached (HBL-100 cells; transfected HBL-100 cells, 24 hours, poly-HEMA): behaved similarly to untransfected cells

Substance: endogenous htt: murine wild-type htt expressed from the Hdh gene
- effect on degenerative testicular phenotype of YAC72 mice (spermatogenic cells): completely rescued the degenerative testicular phenotype

Substance: htt C-terminus: C-terminal fragment of huntingtin, e.g. amino acids 585-3144 of SEQ ID NO: 1, expressed by transfection
- number of aggregates formed by truncated mutant htt (1955-128) ([1]; aggregates induced by HIP-1 expression): reduces the number of aggregates
- number of aggregates formed by truncated mutant htt (1955-128) ([1]; aggregates induced by tamoxifen stimulus (35 μM, 1 hour)): reduces the number of aggregates
- HIP-1 mediated cell death (NT2 cells [2]): reduced HIP-1 mediated cell death
- tamoxifen-induced cell death (mitochondrial viability) (HEK 293T cells): protects HEK 293T cells from tamoxifen-induced cell death
- HD138-dependent cell death (NT2 cells [3]): reduced HD138-dependent cell death

Substance: purified recombinant active AKT
- phosphorylation signal ablated (autoradiography, in vitro kinase reaction) [4]: 64% of the phosphorylation signal on huntingtin was ablated
- phosphorylation detected by autoradiography (in vitro kinase reaction with radiolabelled ATP) [5]: Serine 421 of huntingtin can be phosphorylated by purified recombinant active AKT in vitro
